The subject of one assay is embryonic stem cells. Nature of the assay: Annexin V-FITC apoptosis detection (FACS). The class given is cell-based, human. As to conditions: for apoptosis of undifferentiated cells: 18 hours, 20 μM PluriSIn #1 or 100 nm A939572. The method, then: For quantification of apoptosis, an Annexin V-FITC Apoptosis Detection Kit (eBioscience) was used. […] Dissociated cells were suspended at a final concentration of 2-5×10^5 cells/ml, and treated according to the manufacturer's instructions. Analysis was performed using LSR II FACS with FCS Express software.
(§1) The finding of gene expression associated with apoptosis is consistent with previous reports that pluripotent cells are prone to apoptosis [Qin et al., Journal of Biological Chemistry 282:5842-5852 (2007); Momcilovic et al., PloS One 5:e13410 (2010)]. However, pluripotent cells have also been reported to be susceptible to other types of cell death, such as oncosis [Tan et al., Stem Cells 27:1792-1801 (2009)] and autophagy [Alexander et al., PNAS 108:15828-15833 (2011)]. An Annexin V-FITC detection assay and immunoblotting for caspase-3 (a hallmark executioner of apoptosis) were therefore used in order to confirm that the massive hPSC death induced by PluriSIn #1 is indeed apoptosis.

For assay [1], the system named is phosphorylated eIF2α in differentiated cells. Nature of the assay: Phospho-eIF2α immunoblot, differentiated cells. Type of assay: cell-based, human. Particulars: 20 μM PluriSIn #1 or 100 nm A939572. Here is the method:
(§2) For immunoblotting, 10% polyacrylamide gel was used for protein separation and detection. The gel was transferred to a nitrocellulose membrane and antibody hybridization and chemiluminescence were performed according to standard procedures. The primary antibodies in this analysis were rabbit anti-phosphorylated-eIF2a (1:250, Cell Signaling Technology), rabbit anti caspase-3 (1:1,000, Cell Signaling Technology), mouse anti β-catenin (1:10,000, BD Biosciences) and mouse anti-α-tubulin (1:50,000, Sigma-Aldrich). Horseradish peroxidase-conjugated anti-rabbit and anti-mouse secondary antibodies were obtained from Jackson Immunoresearch Laboratories.
To further study the significance of UPR, XBP1 mRNA splicing and eIF2α phosphorylation, hallmarks of UPR, were further examined. Human ES cells and ES-derived differentiated cells were treated with PluriSIn #1 for 12 hours, and expression of the spliced isoform sXBP1 was determined by quantitative PCR and by immunoblotting, as described in the Materials and Methods section. Gene expression change conferred by dithiothreitol ([…]) was used as a positive control.
In general terms: In western blotting, separated proteins are transferred to a membrane and probed.

For assay [2], the system named is protein synthesis in H9 embryonic stem cells. Nature of the assay: 35S-Met metabolic labeling of protein synthesis, ES cells. The class given is cell-based, human. As to conditions: 12 hours; 20 μM PluriSIn #1 or 100 nm A939572. Here is the method:
H9 embryonic stem cells were seeded in Matrigel™ pre-coated 6-well tissue culture plates at a density of 2×10^5 cells/well, and cultured using mTeSR1 defined medium. BJ fibroblasts were seeded in 6-well tissue culture plate at the same density, and cultured with DMEM supplemented with 10% FBS, penicillin (50 U/ml) and streptomycin (50 μg/ml). Cells were treated for 12 hours with either 20 μM PluriSIn #1 (isonicotinic acid N′-phenylhydrazide) or with 0.2% DMSO. Cells were then washed with PBS, and replenished with methionine-deficient medium for 1 hour. Metabolic labeling of the cells was then performed for 1 hour with 10 μCi of […] methionine in 1 ml/well, in the presence of 20 μM PluriSIn #1 or 0.2% DMSO. Cells were washed with PBS containing 10 mM methionine, and were then lysed in 0.4 ml of 30% ice-cold trichloroacetic acid (TCA) containing 10 mM methionine for 15 minutes. […] Total protein concentration was determined using a Bradford Protein Assay (Sigma-Aldrich), and the radioactivity measurements were normalized accordingly. […]
The similarity between PSIs and PluriSIn #1 and #6 is consistent with the fact that UPR can lead to translational attenuation. In order to confirm this link, the effect of PluriSIn #1 treatment on protein synthesis was determined. […]

Assay [3] deals with caspase-3 in embryonic stem cells. Nature of the assay: Immunoblotting for caspase-3. Type of assay: cell-based, human. Particulars: 20 μM. Here is the method:
as §2, §1

Another assay has as its system human ES cells. Nature of the assay: Global gene expression analysis (microarray). As to conditions: 12 hours. The class given is cell-based. The method, then: Human embryonic stem cells, and early endodermal progenitors derived from human embryonic stem cells, were treated for 12 hours with the compounds PluriSIn #1 (isonicotinic acid N′-phenylhydrazide) or PluriSIn #6 (2-hydroxy-2-(thiophen-2-yl)-2-phenylacetic acid 4-methyl-N′-phenylhydrazide), or with 0.2% DMSO control. Total RNA was extracted using a PerfectPure™ RNA Cultured Cell Kit (5 Prime) according to the manufacturer's protocol, and analyzed using a Human Genome U133A 2.0 microarray platform (Affymetrix); washing and scanning were performed according to the manufacturer's protocol. Original microarray data are accessible at the NCBI Gene Expression Omnibus (GEO) database under the accession number GSE37040.
Arrays were normalized using the MASS algorithm in the Affymetrix Expression Console. Probe sets absent in both control and treatment conditions were filtered out by the MASS Absent/Present call. Probe sets with expression values lower than 50 were raised to this level. Using a 2-fold threshold, a list of differentially expressed genes was comprised for each pair of conditions: embryonic stem cells treated with PluriSin #1 vs. control, ESCs treated with PluriSIn #6 vs. control, and endodermal progenitor cells treated with PluriSIn #1 vs. control. […]

As for `CNC(=O)c1cccc(NC(=O)N2CCC(Oc3ccccc3Cl)CC2)c1` [A939572, 4-(2-chlorophenoxy)-N-(3-(methylcarbamoyl)-phenyl)piperidine-1-carboxamide, reference compound], the “apoptosis of undifferentiated cells” value with embryonic stem cells was “enhanced apoptosis”. Besides, the “levels of phosphorylated eIF2α, differentiated cells” value in assay [1] is recorded as “did not increase levels”. In addition, in assay [2], the “decrease in protein synthesis, ES cells” value was “approximately 50%”.

On to `O=C(NNc1ccccc1)c1ccncc1` [PluriSIn #1, isonicotinic acid N′-phenylhydrazide], for which the “increase in number of apoptotic cells” value with embryonic stem cells (20 μM, 16 hours post-treatment) is “approximately 7 fold”. The “apoptosis of undifferentiated cells” value in the assay on embryonic stem cells is listed as “enhanced apoptosis”. Besides, in assay [3], the “activation of caspase-3” value is given as “enhanced activation of caspase-3”. Also, the “levels of phosphorylated eIF2α, differentiated cells” value in assay [1] is recorded as “did not increase levels”. Besides, in assay [2], the “decrease in protein synthesis, ES cells” value is “approximately 30%”. Also, the “gene expression changes associated with ER stress and UPR” value in the assay with human ES cells is “considerable gene expression changes”.

For `Cc1ccc(NNC(=O)C(O)(c2ccccc2)c2cccs2)cc1` (stereo not shown) [PluriSIn #6, 2-hydroxy-2-(thiophen-2-yl)-2-phenylacetic acid 4-methyl-N′-phenylhydrazide], the “gene expression changes associated with ER stress and UPR” value in the assay with human ES cells is recorded as “considerable gene expression changes”.

(Values after patent US20180153830A1, “SELECTIVE INHIBITORS OF UNDIFFERENTIATED CELLS” (Yissum Research Development Company of the Hebrew …, priority 2012, published 2018).)
